Experimental data as given in patent US20260355217A1, “HPK1 INHIBITOR, PREPARATION METHOD THEREFOR, AND USE THEREOF” (Beijing Earthwise Technology Co., Ltd., priority 2022, published 2026).

Columns and labels:
HPK1 = HPK1 (Homo sapiens, UniProt Q92918); test: HPK1 HTRF Kinase Assay; type: biochemical; conditions: 1000 μM ATP, 50 nM HPK1, STK1 substrate, 120 minutes
Method: Assay Example 2 HPK1 HTRF Kinase Assay
The assay was performed in a 384-well plate (Greier, Cat #784075) with a total reaction system of 20 μL. 1×kinase buffer (5*enzyme buffer, 5 mM MgCl2, 0.1% BSA, 1 mM DTT), […] and 1000 µM ATP, and 10 μL of Detection Mix (0.25 nM STK antibody, 62.5 nM XL665) were included in the reaction mixture. The reaction was initiated by adding 50 nM HPK1. After 120 minutes of reaction, the assay was terminated by adding 10 μL of Detection Mix. After being incubated at room temperature for 60 minutes, the assay plate was read by EnVision multi-function microplate reader to read the FRET signal (the ratio of HTRF 665/615 was calculated from the readings at 665 nm and 615 nm).
The ratio of the signal at 665 nm to the signal at 615 nm was converted to the percentage of inhibition. Inhibition %=(maximum value−sample value)/(maximum value−minimum value)×100. The minimum value refers to the value measured in a well without enzyme but with DMSO and substrate, and the maximum value refers to the value measured in a well with DMSO, enzyme and substrate. IC50 values were calculated by XLFit (version 5.3.1.3) in Excel. Equation: Y=Bottom+(Top−Bottom)/(1+(IC50/X)^HillSlope).

[1] = biological target: T1, pSLP76 (Phospho-SLP-76 (Ser376)), Jurkat E6-1 cells (Homo sapiens, UniProt Q92918); test: Phospho-SLP-76 (Ser376) HTRF Assay in Jurkat E6-1 cells; type: cell-based; conditions: compound 4 hours, then anti-CD3 20 minutes
T1 construct: read-out phospho-SLP-76 (Ser376) HTRF
T1 sequence (Q92918 whole entry): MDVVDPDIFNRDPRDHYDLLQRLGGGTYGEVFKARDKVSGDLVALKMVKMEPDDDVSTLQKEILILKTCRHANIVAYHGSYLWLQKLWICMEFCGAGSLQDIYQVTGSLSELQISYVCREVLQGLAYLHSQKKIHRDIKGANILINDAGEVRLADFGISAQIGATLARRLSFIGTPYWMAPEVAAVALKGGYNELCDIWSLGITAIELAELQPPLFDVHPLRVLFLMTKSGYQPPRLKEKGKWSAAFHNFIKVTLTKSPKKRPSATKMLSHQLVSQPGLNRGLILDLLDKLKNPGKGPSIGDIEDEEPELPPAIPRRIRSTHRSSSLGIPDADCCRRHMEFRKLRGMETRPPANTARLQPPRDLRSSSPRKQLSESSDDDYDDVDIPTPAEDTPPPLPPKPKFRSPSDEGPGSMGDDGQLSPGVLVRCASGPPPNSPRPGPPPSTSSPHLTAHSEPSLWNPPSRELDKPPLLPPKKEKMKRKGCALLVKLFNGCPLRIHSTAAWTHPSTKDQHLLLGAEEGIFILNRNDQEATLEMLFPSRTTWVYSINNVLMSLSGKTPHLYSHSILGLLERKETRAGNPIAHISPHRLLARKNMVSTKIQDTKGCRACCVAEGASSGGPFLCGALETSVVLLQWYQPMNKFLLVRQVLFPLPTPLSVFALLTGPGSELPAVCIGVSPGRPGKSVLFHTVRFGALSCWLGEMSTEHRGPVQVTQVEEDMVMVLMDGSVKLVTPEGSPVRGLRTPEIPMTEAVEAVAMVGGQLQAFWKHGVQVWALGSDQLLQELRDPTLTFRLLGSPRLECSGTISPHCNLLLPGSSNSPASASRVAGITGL
Method: Assay Example 3 Phospho-SLP-76 (Ser376) HTRF Assay
A compound was dissolved in DMSO to 10 mM, and then diluted three-fold with DMSO to 10 dosages in a 96-well plate. Then, 3 μL of the diluted compound sample was transferred to a 96-well plate with 97 μL of cell culture medium, and the plate was shaken for 5 minutes. According to the experimental design diagram, 7.5 μL of the diluted compound sample was transferred to a cell plate. Final concentrations of the compound in this assay were 10000.00, 3333.33, 1111.11, 370.37, 123.46, 41.15, 13.72, 4.57, 1.52 and 0.51 nM.
In this assay, the density of Jurkat E6-1 cells was maintained between 3*10^5 to 3*10^6 cells/mL. The cell culture was replaced with fresh culture medium every 2 to 3 days (depending on the cell density). 30 μL of Jurkat E6-1 (300,000 cells) was added to a 96-well plate and incubated in a 37 °C incubator for 1 hour. Then, according to the experimental design diagram, compounds (6×, 7.5 μL) were added to treat the cells for 4 hours, respectively. After 4 hours, purified anti-human anti-CD3 antibodies (6×, 7.5 μL) were added to treat the cells for 20 minutes. After 20 minutes, 15 μL of cell lysis buffer (4×) was added, and the cells were lysed at 25 °C with shaking (250 rpm) for 1 hour. Then, according to the experimental design diagram, 16 μL of cell lysate was transferred to a 384-well plate using a pipette. After the transfer, 4 μL of antibody detection mixture was added. After being placed at room temperature overnight, the plate was read by EnVision multi-function microplate reader to read the FRET signal (the ratio of HTRF 665/615 was calculated from the readings at 665 nm and 615 nm).
The ratio of the signal at 665 nm to the signal at 615 nm was converted to the percentage of inhibition. Inhibition %=(maximum value−sample value)/(maximum value−minimum value)×100. The minimum value refers to the signal value of a well without anti-CD3 antibody stimulation during the treatment of cells, and the maximum value refers to the signal value of a well with anti-CD3 antibody stimulation but without the compound during the treatment of cells. IC50 values were calculated by XLFit (version 5.3.1.3) in excel. Equation: Y=Bottom+(Top−Bottom)/(1+(IC50/X)^HillSlope).

[2] = test system: human Pan T cells (IL-2 release); test: Human Pan T Cell IL-2 ELISA; type: cell-based; conditions: Homo sapiens, T-cell, 48 h, Anti-CD3/Anti-CD28, IL-2 ELISA
Method: Assay Example 4 Human Pan T Cell IL-2 ELISA
A compound was dissolved in DMSO to 10 mM, and then diluted three-fold with DMSO to 9 dosages in a 96-well plate. Then, 10 μL of the diluted compound sample was transferred to a 96-well plate with 90 μL of cell culture medium, and the plate was shaken for 5 minutes. Then, 5 μL of the diluted compound sample was transferred to a 96-well plate with 120 μL of cell culture medium, and the plate was shaken for 5 minutes. According to the experimental design diagram, 50 μL of the diluted compound sample was transferred to a cell plate. Final concentrations of the compound in this assay were 10000.00, 5000, 2500, 1250, 625, 312.5, 156.25, 78.125 and 39.063 nM.
The assay was conducted in a 96-well plate. On the first day of the assay, Anti-CD3 was added to the 96-well plate and incubated in a 4 °C refrigerator overnight. On the second day of the assay, human Pan T cells were recovered, centrifuged and counted. The cell density was adjusted to 1*10^6 cells/ml. Then, 100 μL of cells were added to the 96-well plate washed with PBS and added with Anti-CD3; according to the experimental design diagram, 50 μL of diluted Anti-CD28 and 50 μL of the diluted compound were added to each well, centrifuged, and the cell plate was placed and incubated in an incubator for 48 hours; after 48 hours, the plate was centrifuged and the supernatant was collected for IL-2 ELISA.
The signal value of light absorption was converted into a multiple. Multiple=sample value/the average value of control wells. The average value of control wells refers to the value measured in wells with DMSO added. EC50 values were calculated by XLFit (version 5.3.1.3) in Excel. Equation: Y=Bottom+(Top−Bottom)/(1+(EC50/X)^HillSlope).

Sequence of HPK1 (Q92918 whole entry): as above

Row | Structure (SMILES) | IC50 (HPK1) [nM] | IC50 [1] [nM] | EC50 [2] [nM]
1 | COc1cccn2c(-c3cc4c(c5c3CCNC5=O)Nc3ccc(N5CCOCC5)cc3C4(C)C)cnc12 [Example 13] | 9.32 | 24.4 | 3.12
2 | CC1(C)c2cc(N3CCOCC3)ccc2Nc2c1cc(-c1cncc(N3CCOCC3)c1)c1c2C(=O)NC1 [Example 85] | 36.2 |  | 69.4
